Reference: patent US11306122B2, “Compositions and methods of inhibiting the binding of plasma IgG autoantibodies to serotonin 2A receptor” (United States Government As Represented By The Department …, priority 2019, dated 2022)
“Also recorded” adds a separate entry of the source. Ends that are not written are not given here.

What was measured:
[1] = test system: N2A mouse neuroblastoma cells; assay: N2A cell survival (MTT) promoted by schizophrenia/psychosis plasma autoantibodies; format: cell-based; conditions: M100907 500 nM; LY379268 5 μM; pertussis toxin 100 ng/mL; LY294002 20 μM; 24 hours
Procedure: (§1) Methods: Plasma from five older adults with chronic schizophrenia and eight age-matched patients having another neuropsychiatric, immune or metabolic disorder was subjected to Protein-A affinity chromatography to obtain IgG autoantibodies. Mean neurite retraction (5 minutes) or cell survival (24 hours) was determined in mouse N2A neuroblastoma cells incubated with autoantibodies in the presence or absence of specific antagonists of the Gq/11/PLC/IP3R signaling pathway, Gi-coupled, beta-arrestin2-directed pathways, or LY379268.
N2A cell survival. MTT assay was performed 24 hours after incubation with test substances (Zimering M B, J Endocrinol Diabetes. 2018; 5(2): 10).
Serotonin 2A receptor activation leads to f3-arrestin-2-mediated desensitization and receptor internalization. However, β-arrestin-2 can also couple with diverse signaling pathways leading to enhanced cell proliferation and/or survival promotion.

[2] = test system: N2A cells; assay: N2A cell loss (MTT) induced by TBI patient autoantibodies; format: cell-based, mouse
Procedure: Cell survival was determined with MTT assay.
Mouse neuroblastoma cell loss. N2A cell loss was quantified using an MTT (3-(4,5-dimethylthiazol-2-yl)-2,5-diphenyltetrazolium bromide) tetrazolium reduction assay after overnight incubation with autoantibodies from TBI patients (Zimering M B, Endocrinol Diabetes Metab J. 2019 August; 3(4) pii: 118. Epub 2019 Aug. 14).

[3] = test system: mouse N2A neuroblastoma cells; assay: Acute N2A neurite retraction induced by TBI patient 5-HT2A receptor autoantibodies; format: cell-based; conditions: for effect on TBI autoantibody-induced acute neurite retraction: M100907 250-500 nM, Y27632 10 μM, other concentrations as in Table 17; for % of autoantibody Neurite Retraction from TBI patients: 60 nM IgG of representative TBI patient
Procedure: Acute neurite retraction. Mouse N2A neuroblastoma cells were maintained in Dulbecco's minimal essential medium with 10% fetal calf serum. […] Neurite retraction represents average neurite length-shortening after five minutes exposure to TBI (5-HT2A receptor) autoantibodies (60-100 nM) in the presence or absence of various G-protein coupled receptor (GPCR) or signaling pathway antagonists.
A 60 nanomolar concentration of the IgG autoantibodies (e.g., 5-HT2A receptor autoantibodies) from a representative TBI patient was incubated with N2A cells in the presence or absence of the indicated concentration of the selective GPCR antagonist.
A 60 nanomolar concentration of 5-HT2A receptor autoantibodies from TBI patients was incubated with N2A cells in the presence or absence of the indicated concentration of Gq11/PLC-gamma/IP3R antagonist or RhoA/Rho kinase pathway inhibitor.
Neurovascular 5-hydroxytryptamine (serotonin) 2A receptor (5-HT2AR) autoantibodies were previously reported to function as long-acting agonists in diabetic angiopathy and subsets of major depression, Parkinson's disease or dementia. The 5-HT2A receptor is highly expressed in specific brain regions underlying cognition, perception and mood regulation. Long-lasting 5-HT2A receptor activation by circulating autoantibodies might contribute to pathophysiology via central and peripheral mechanisms. Since the risk or incidence of Parkinson's disease, depression and dementia increase following traumatic brain injury (TBI), circulating neurotoxic autoantibodies (e.g., 5HT2AR) were tested, characterized and compared with autoantibodies from TBI patients vs. diabetic subsets with or without neurodegenerative disorders. Plasma IgG autoantibodies (e.g., 5-HT2AR autoantibodies) were obtained by protein-A affinity chromatography in ten male TBI patients mean age 64 years old.

[4] = test system: N2a neuroblastoma cells; assay: N2a cell survival with ZDF rat plasma protein G eluate; format: cell-based, mouse; conditions: 1 μM antagonist; 1 μg/mL (10 nM) eluate; 24 hours
Procedure: Plasma was applied to a Protein G affinity chromatography column (which binds most subclasses or rat IgG autoantibodies), washed extensively and eluted in low pH (2.7) buffer. The resulting eluate was incubated with N2a neuroblastoma cells at 37 degrees C. for 24 hours.

[5] = test system: N2A mouse neuroblastoma cells; assay: Acute N2A neurite retraction induced by schizophrenia plasma autoantibodies; format: cell-based; conditions: for % AutoAB-induced neurite retraction: 20 nM Pt 1 schizophrenia AutoAB
Procedure: as §1
Acute neurite retraction assay. Percent of basal neurite length in N2A cells expressing one or more proximally-located dendrite-like process was determined after interval exposure to test substances (Zimering M B, J Endocrinol Diabetes. 2018; 5(2): 10).
A twenty nanomolar concentration of protein-A eluate fraction of plasma from Pt 1 with schizophrenia was incubated with N2A cells in the presence or absence of the indicated concentration of each Gq/11, GPCR antagonist. Results are the mean+/−SD of two experiments.
A forty nanomolar concentration of plasma autoantibodies (AutoAB) from Pt 1 or Pt, schizophrenia, was incubated in the presence or absence of the indicated concentration of RhoA/Rho kinase (ROCK) inhibitor, or individual antagonists of the Gq11/PLC/IP3R signaling pathway. […]

[6] = Blood glucose in ZDF rats; format: in vivo, Zucker diabetic fatty (ZDF) rat
[7] = Observation of side effects and sedation in ZDF rats; format: in vivo, Zucker diabetic fatty (ZDF) rat
Procedure: Normally these rats will feed nearly continuously when given the opportunity. This sedating effect was reproducible following a second IP injection of 1 mg of the SEQ ID NO: 2 in each of the 3 ZDR rats. […] Serotonin plays a major role in wakefulness and arousal in the nervous system. It is possible that the administration of SEQ ID NO: 2 blocks the action of the neurotransmitter serotonin at multiple sites in the periphery and in the central nervous system, inducing sleep via antagonism of serotonin's role in wakefulness/arousal, independent of the pronounced blood pressure-lowering effect.

Molecule | effect on autoantibody-induced N2A pro-survival/proliferation (words) [1] | effect alone on N2A cell survival ([2]; 250 nM-500 nM, without autoantibodies) | effect on accelerated N2A cell death/loss by TBI autoantibodies ([2]; M100907 250 nM (eight of eight patients), prazosin 850 nM (n=5), one-fiftieth dilution, 24 hours) | prevention of mean neurite retraction in TBI patient 5-HT2AR autoantibodies ([3]; M100907 200-670 nM, n=10 TBI patients, retraction alone 52±10%) | effect on TBI autoantibody-induced acute neurite retraction [3] | % of autoantibody Neurite Retraction from TBI patients ([3]; antagonist 250 nM) [%] | effect on accelerated neuroblastoma cell death induced by ZDF rat protein G eluate [4] | effect on LY379268-potentiated SCZ autoantibody-induced neurite retraction ([5]; M100907 500 nM) | effect on schizophrenia autoantibody-induced neurite retraction ([5]; M100907 two-hundred nanomolar, Y27632 ten micromolar, Y254890 one micromolar) | % AutoAB-induced neurite retraction ([5]; antagonist 200 nM) [%] | % of autoantibody Neurite Retraction from TBI patients ([3]; antagonist 400 nM) [%] | % AutoAB-induced neurite retraction ([5]; antagonist 500 nM) [%] | effect of repeated peptide injections on blood glucose concentration [6] | vomiting or other side effects during and for 15 days after administration ([7]; ZDF rats, alternate daily 2 mg/kg IP) | side effects eighteen days after injection ([7]; three ZDF rats, approximately 1 mg single intraperitoneal injection)
COc1cccc([C@H](O)C2CCN(CCc3ccc(F)cc3)CC2)c1OC [Peptide M100907] | significantly blocked | no significant effect | substantially prevented; also recorded: nearly completely prevented | 89-91% | substantially prevented; also recorded: completely or nearly completed prevented | 0 | significantly reduced; also recorded: significant protection | significantly prevented | completely prevented | 0 ± 0 |  |  |  |  | 
O=C(CCCN1CCC2(CC1)C(=O)NCN2c1ccccc1)c1ccc(F)cc1 [Spiperone] |  |  |  |  | substantially blocked |  | significantly reduced; also recorded: significant protection |  |  |  | 20 | 17 ± 6 |  |  | 
SCLLADDN [Peptide 2] |  |  |  |  |  |  |  |  |  |  |  |  | no evidence that the peptide injections caused a significant increase in blood glucose concentration | did not experience vomiting or any other side effects | no untoward side effects were observed
